Reference: patent US20240251790A1 (priority 2021, published 2024)
Where “and” joins values, the source holds several entries; their conditions need not be identical. Identical values can stand only once. Like-named read-outs stand apart in the source and are kept apart here.

Legend:
[1] = tested on: barley; assay: Germination of treated barley kernels (percentage of living kernels); assay type: in vivo; conditions: 500 ppm PAA
Procedure: The grains treated with PAA as described in Example 4 were further tested for germination. After the treatment, the PAA solution was decanted and kernels were immediately transferred into Petri dishes and placed between two wet paper towels for germination tests. The treated kernels were not washed with water. The germination continued in a water bath at room temperature for 2 days. Germination was evaluated by the percentage of living kernels in a sample of barley.

[2] = tested on: yeast and mold (YM); assay type: cell-based; conditions: for YM Log10 / YM Log10 Reduction / YM Log10 (CFU/10 g barley grains): 500 ppm PAA
[3] = tested on: all microbial populations tested (APC, ECC, YM); assay: Micro tests on barley grains, all microbial populations tested (APC, ECC, YM); assay type: cell-based
Procedure: The treatment was performed at 20° C. as follows: 100 ml of PAA solution at 500 ppm (unadjusted or adjusted to pH=9.0) were applied to 10.0 g of wet barley grains. Solutions with the grains were then shaken for 30 seconds and then the acid solution was neutralized by addition of 0.5 g sodium thiosulfate. The solutions were then used to evaluate effect of PAA treatment on total microbial count (APC), coliforms (ECC), and yeast and mold (YM). Control samples were treated with DI water.
Each sample was diluted serially into Butterfield's phosphate buffer, and the dilutions were plated on Petrifilm™ (3M, Minneapolis, MN) plates specific for different types of microorganisms. The plates were incubated for 48 hours at 35° C. for APC, and for 5 days at 25° C. for YM. For ECC, the incubation was done at 35° C. for 24 hours, then coliforms were counted, and incubation continued for an additional 24 hours at 35° C. Grown colonies on plates were counted and expressed in CFU/10 g barley grains for each treatment. The tests were done in duplicates.

[4] = tested on: total microbial count (APC); assay type: cell-based
[5] = tested on: Fusarium graminearum 46779; assay type: cell-based
[6] = tested on: coliforms (ECC); assay type: cell-based
[7] = germinated barley treated before kilning, pH = 3, 30 s, testing after germination, * = complete kill
[8] = germinated barley treated before kilning, pH = 3, 30 s, testing after kilning, * = complete kill
[9] = germinated barley treated before kilning, pH = 9, 30 s, testing after germination
[10] = germinated barley treated before kilning, pH = 9, 30 s, testing after kilning, * = complete kill
[11] = germinated barley, pH = 3.1, 30 seconds
[12] = germinated barley, pH = 9.0, 30 seconds
[13] = steeped barley, pH = 3.1 (unadjusted), 30 seconds, 20° C.
[14] = steeped barley, pH = 9.0, 30 seconds, 20° C.
[15] = steeped barley, pH = 10.0, 30 s
[16] = steeped barley, unadjusted (pH=3.1), 5 s
[17] = steeped barley, unadjusted (pH=3.1), 30 s
[18] = germinated barley treated before kilning, 500 ppm PAA, pH = 3, 30 s, testing after germination
[19] = germinated barley treated before kilning, 500 ppm PAA, pH = 3, 30 s, testing after kilning
[20] = germinated barley treated before kilning, 500 ppm PAA, pH = 9, 30 s, testing after germination
[21] = germinated barley treated before kilning, 500 ppm PAA, pH = 9, 30 s, testing after kilning
[22] = germinated barley, 500 ppm PAA, pH = 3.1, 30 seconds
[23] = germinated barley, 500 ppm PAA, pH = 9.0, 30 seconds
[24] = steeped barley, 500 ppm PAA, pH = 3.1 (unadjusted), 30 seconds, 20° C.
[25] = steeped barley, 500 ppm PAA, pH = 6.5, 5 s
[26] = steeped barley, 500 ppm PAA, pH = 6.5, 30 s
[27] = steeped barley, 500 ppm PAA, pH = 9, 5 s
[28] = steeped barley, 500 ppm PAA, pH = 9, 30 s
[29] = steeped barley, 500 ppm PAA, pH = 9.0, 30 seconds, 20° C.
[30] = steeped barley, 500 ppm PAA, pH = 9, 10 min
[31] = steeped barley, 500 ppm PAA, pH = 10.0, 5 s
[32] = steeped barley, 500 ppm PAA, pH = 10.0, 30 s
[33] = steeped barley, 500 ppm PAA, unadjusted (pH=3.1), 5 s
[34] = steeped barley, 500 ppm PAA, unadjusted (pH=3.1), 30 s
[35] = test on day 2, treated once, day 2 (after steeping), 500 ppm PAA, 2:1, 10 minutes, 20° C.
[36] = test on day 4, treated once, day 2, 500 ppm PAA, 10 minutes
[37] = test on day 4, treated twice, days 2 and 4, 500 ppm PAA, 10 min each
[38] = germinated barley treated before kilning, 500 ppm PAA, pH = 3, 30 s, testing after kilning, * = complete kill
[39] = germinated barley treated before kilning, 500 ppm PAA, pH = 9, 30 s, testing after kilning, * = complete kill

## CC(=O)OO [PAA, peracetic acid]
[1]; pH 3.1, 30 s, germination 2 days
  Germination: 100%
[1]; pH 3.1, 5 min, germination 2 days
  Germination: 100%
[1]; pH 3.1, 10 min, germination 2 days
  Germination: 94%
[1]; pH 3.1, 30 min, germination 2 days
  Germination: 73%
[1]; pH 9.0, 30 s, germination 2 days
  Germination: 100%
[1]; pH 9.0, 5 min, germination 2 days
  Germination: 100%
[1]; pH 9.0, 10 min, germination 2 days
  Germination: 100%
[1]; pH 9.0, 30 min, germination 2 days
  Germination: 99%
[1]; pH 9.0, longer treatment times (10 min and 30 min)
  Germination: ~100%
[1]; short treatment times (0.5-5 min)
  effect on germination: practically did not affect the germination
[1]; unadjusted (acidic) solution, longer treatment times (10 min and especially 30 min)
  effect on germination: suppressed germination
[2]; [7]
  YM Log10: 0.00* Log10
  YM Log10 Reduction: 4.67* Log10
[2]; [8]
  YM Log10: 0.00* Log10
  YM Log10 Reduction: 2.00* Log10
[2]; [9]
  YM Log10: 2.92 Log10
  YM Log10 Reduction: 1.75 Log10
[2]; [10]
  YM Log10: 0.00* Log10
  YM Log10 Reduction: 2.00* Log10
[2]; [11]
  YM Log10 (CFU/10 g barley grains): 3.60 Log10
  YM Log10 Reduction: 1.86 Log10
[2]; [12]
  YM Log10 (CFU/10 g barley grains): 3.83 Log10
  YM Log10 Reduction: 1.63 Log10
[2]; [13]
  YM Log10 (CFU/10 g barley grains): 3.84 Log10
  YM Log10 Reduction: 1.75 Log10
[2]; steeped barley, pH = 6.5, 5 s
  YM Log10: 1.30 Log10
  YM Log10 Reduction: 2.46 Log10
[2]; steeped barley, pH = 6.5, 30 s
  YM Log10: 0.00 Log10
  YM Log10 Reduction: 3.76 Log10
[2]; steeped barley, pH = 9, 5 s
  YM Log10: 3.86 Log10
  YM Log10 Reduction: 0.62 Log10
[2]; steeped barley, pH = 9, 30 s
  YM Log10: 2.60 Log10
  YM Log10 Reduction: 1.88 Log10
[2]; [14]
  YM Log10 (CFU/10 g barley grains): 4.06 Log10
  YM Log10 Reduction: 1.53 Log10
[2]; steeped barley, pH = 9, 10 min
  YM Log10: 2.80 Log10
  YM Log10 Reduction: 1.79 Log10
[2]; steeped barley, pH = 10.0, 5 s
  YM Log10: 3.52 Log10
  YM Log10 Reduction: 0.24 Log10
[2]; [15]
  YM Log10: 3.16 Log10
  YM Log10 Reduction: 0.60 Log10
[2]; [16]
  YM Log10: 2.95 Log10
  YM Log10 Reduction: 1.53 Log10
[2]; [17]
  YM Log10: 0.00 Log10
  YM Log10 Reduction: 4.48 Log10
[3]; germinated barley, unadjusted PAA 500 ppm, 30 seconds (Example 2)
  reduction of all microorganisms: 1-2 Log10
[3]; steeped barley, 500 ppm PAA at higher pH (pH=9.0), given sufficient time (Example 4)
  reduction: 2-3 Log10
[3]; steeped barley, 500 ppm PAA, 30 s (Example 4)
  reduction of all microorganisms: 2.0-4.5 Log10
[3]; steeped barley, 500 ppm PAA, 30 seconds, pH 3.1 and 9.0 (Example 1)
  reduction in all microbial populations tested: 1.5-2.1 Log10
[4]; [18]
  APC Log10: 7.22 Log10
  APC Log10 Reduction: 1.47 Log10
[4]; [19]
  APC Log10: 3.78 Log10
  APC Log10 Reduction: 2.59 Log10
[4]; [20]
  APC Log10: 7.86 Log10
  APC Log10 Reduction: 0.83 Log10
[4]; [21]
  APC Log10: 5.14 Log10
  APC Log10 Reduction: 1.23 Log10
[4]; [22]
  APC Log10 (CFU/10 g barley grains): 7.23 Log10
  APC Log10 Reduction: 1.98 Log10
[4]; [23]
  APC Log10 (CFU/10 g barley grains): 8.01 Log10
  APC Log10 Reduction: 1.20 Log10
[4]; [24]
  APC Log10 (CFU/10 g barley grains): 6.99 Log10
  APC Log10 Reduction: 2.16 Log10
[4]; [25]
  APC Log10: 7.34 Log10
  APC Log10 Reduction: 1.73 Log10
[4]; [26]
  APC Log10: 6.51 Log10
  APC Log10 Reduction: 2.56 Log10
[4]; [27]
  APC Log10: 7.97 Log10
  APC Log10 Reduction: 0.51 Log10
[4]; [28]
  APC Log10: 6.72 Log10
  APC Log10 Reduction: 1.75 Log10
[4]; [29]
  APC Log10 (CFU/10 g barley grains): 7.34 Log10
  APC Log10 Reduction: 1.81 Log10
[4]; [30]
  APC Log10: 6.25 Log10
  APC Log10 Reduction: 2.23 Log10
[4]; [31]
  APC Log10: 8.28 Log10
  APC Log10 Reduction: 0.79 Log10
[4]; [32]
  APC Log10: 7.35 Log10
  APC Log10 Reduction: 1.72 Log10
[4]; [33]
  APC Log10: 8.19 Log10
  APC Log10 Reduction: 0.29 Log10
[4]; [34]
  APC Log10: 6.54 Log10
  APC Log10 Reduction: 1.93 Log10
[4]; [35]
  APC Log10: 3.84 Log10
  APC Log10 Reduction: 4.30 Log10
[4]; [36]
  APC Log10: 6.72 Log10
  APC Log10 Reduction: 2.5 Log10 and 2.52 Log10
[4]; [37]
  APC Log10: 5.78 Log10
  APC Log10 Reduction: 3.46 Log10
[5]
  kill of Fusarium: complete kill
[6]; [18]
  ECC Log10: 6.59 Log10
  ECC Log10 Reduction: 1.67 Log10
[6]; [38]
  ECC Log10: 0.00* Log10
  ECC Log10 Reduction: 3.25* Log10
[6]; [20]
  ECC Log10: 6.68 Log10
  ECC Log10 Reduction: 1.58 Log10
[6]; [39]
  ECC Log10: 0.00* Log10
  ECC Log10 Reduction: 3.25* Log10
[6]; [22]
  ECC Log10 (CFU/10 g barley grains): 6.83 Log10
  ECC Log10 Reduction: 1.16 Log10
[6]; [23]
  ECC Log10 (CFU/10 g barley grains): 7.39 Log10
  ECC Log10 Reduction: 0.60 Log10
[6]; [24]
  ECC Log10 (CFU/10 g barley grains): 5.99 Log10
  ECC Log10 Reduction: 1.91 Log10
[6]; [25]
  ECC Log10: 5.94 Log10
  ECC Log10 Reduction: 1.66 Log10
[6]; [26]
  ECC Log10: 5.26 Log10
  ECC Log10 Reduction: 2.34 Log10
[6]; [27]
  ECC Log10: 5.48 Log10
  ECC Log10 Reduction: 1.73 Log10
[6]; [28]
  ECC Log10: 4.78 Log10
  ECC Log10 Reduction: 2.43 Log10
[6]; [29]
  ECC Log10 (CFU/10 g barley grains): 5.79 Log10
  ECC Log10 Reduction: 2.11 Log10
[6]; [30]
  ECC Log10: 3.63 Log10
  ECC Log10 Reduction: 3.57 Log10
[6]; [31]
  ECC Log10: 6.49 Log10
  ECC Log10 Reduction: 1.11 Log10
[6]; [32]
  ECC Log10: 5.27 Log10
  ECC Log10 Reduction: 2.33 Log10
[6]; [33]
  ECC Log10: 4.60 Log10
  ECC Log10 Reduction: 2.60 Log10
[6]; [34]
  ECC Log10: 2.60 Log10
  ECC Log10 Reduction: 4.60 Log10
[6]; [35]
  ECC Log10: 0.00 Log10
  ECC Log10 Reduction: 4.36 Log10
[6]; [36]
  ECC Log10: 5.41 Log10
  ECC Log10 Reduction: 1.8 Log10 and 1.82 Log10
[6]; [37]
  ECC Log10: 4.95 Log10
  ECC Log10 Reduction: 2.28 Log10
[6]; unadjusted PAA 500 ppm, treated after germination
  kill of ECC microorganisms: complete kill

## Percitric acid [PCA]
[2]
  effect on YM: minimal effect
[4]
  efficiency against APC: efficient
[6]
  efficiency against ECC: efficient
